Source: PMC11873239, “A covalent chemical probe for Chikungunya nsP2 cysteine protease with antialphaviral activity and proteome-wide selectivity” (Scientific Reports, 2025)
Where “and” joins values, the source holds several entries; their conditions need not be identical. Equal values may be shown once.

Tests used:
Format in all cases: binding
[1] = target: HEK293 cell lysate proteins and CHIKV nsP2 (Homo sapiens, UniProt A8K2U0)
[2] = target: HEK293 cell lysate proteins and CHIKV nsP2 (Homo sapiens, UniProt O14617)
[3] = target: HEK293 cell lysate proteins and CHIKV nsP2 (Homo sapiens, UniProt O15042)
[4] = target: HEK293 cell lysate proteins and CHIKV nsP2 (Homo sapiens, UniProt O60814)
[5] = target: HEK293 cell lysate proteins and CHIKV nsP2 (Homo sapiens, UniProt O75223)
[6] = target: HEK293 cell lysate proteins and CHIKV nsP2 (Homo sapiens, UniProt O75342)
[7] = target: HEK293 cell lysate proteins and CHIKV nsP2 (Homo sapiens, UniProt P04406)
[8] = target: HEK293 cell lysate proteins and CHIKV nsP2 (Homo sapiens, UniProt P05090)
[9] = target: HEK293 cell lysate proteins and CHIKV nsP2 (Homo sapiens, UniProt P06702)
[10] = target: HEK293 cell lysate proteins and CHIKV nsP2 (Homo sapiens, UniProt P07339)
[11] = target: HEK293 cell lysate proteins and CHIKV nsP2 (Homo sapiens, UniProt P07355)
[12] = target: HEK293 cell lysate proteins and CHIKV nsP2 (Homo sapiens, UniProt P11142)
[13] = target: HEK293 cell lysate proteins and CHIKV nsP2 (Homo sapiens, UniProt P11388)
[14] = target: HEK293 cell lysate proteins and CHIKV nsP2 (Homo sapiens, UniProt P14923)
[15] = target: HEK293 cell lysate proteins and CHIKV nsP2 (Homo sapiens, UniProt P27708)
[16] = target: HEK293 cell lysate proteins and CHIKV nsP2 (Homo sapiens, UniProt P31151)
[17] = target: HEK293 cell lysate proteins and CHIKV nsP2 (Homo sapiens, UniProt P59665)
[18] = target: HEK293 cell lysate proteins and CHIKV nsP2 (Homo sapiens, UniProt P81605)
[19] = target: HEK293 cell lysate proteins and CHIKV nsP2 (Homo sapiens, UniProt Q08188)
[20] = target: HEK293 cell lysate proteins and CHIKV nsP2 (Homo sapiens, UniProt Q13428)
[21] = target: HEK293 cell lysate proteins and CHIKV nsP2 (Homo sapiens, UniProt Q15424)
[22] = target: HEK293 cell lysate proteins and CHIKV nsP2 (Homo sapiens, UniProt Q5JTH9)
[23] = target: HEK293 cell lysate proteins and CHIKV nsP2 (Homo sapiens, UniProt Q7L014)
[24] = target: HEK293 cell lysate proteins and CHIKV nsP2 (Homo sapiens, UniProt Q8NI27)
[25] = target: HEK293 cell lysate proteins and CHIKV nsP2 (Homo sapiens, UniProt Q8TEQ6)
[26] = target: HEK293 cell lysate proteins and CHIKV nsP2 (Homo sapiens, UniProt Q99549)
[27] = target: HEK293 cell lysate proteins and CHIKV nsP2 (Homo sapiens, UniProt Q9HCY8)
[28] = target: HEK293 cell lysate proteins and CHIKV nsP2 (Homo sapiens, UniProt Q9NYF8)
[29] = target: HEK293 cell lysate proteins and CHIKV nsP2 (Homo sapiens, UniProt Q9UQ35)

Chain of HEK293 cell lysate proteins and CHIKV nsP2 (Homo sapiens, UniProt Q13428) (Q13428 whole entry): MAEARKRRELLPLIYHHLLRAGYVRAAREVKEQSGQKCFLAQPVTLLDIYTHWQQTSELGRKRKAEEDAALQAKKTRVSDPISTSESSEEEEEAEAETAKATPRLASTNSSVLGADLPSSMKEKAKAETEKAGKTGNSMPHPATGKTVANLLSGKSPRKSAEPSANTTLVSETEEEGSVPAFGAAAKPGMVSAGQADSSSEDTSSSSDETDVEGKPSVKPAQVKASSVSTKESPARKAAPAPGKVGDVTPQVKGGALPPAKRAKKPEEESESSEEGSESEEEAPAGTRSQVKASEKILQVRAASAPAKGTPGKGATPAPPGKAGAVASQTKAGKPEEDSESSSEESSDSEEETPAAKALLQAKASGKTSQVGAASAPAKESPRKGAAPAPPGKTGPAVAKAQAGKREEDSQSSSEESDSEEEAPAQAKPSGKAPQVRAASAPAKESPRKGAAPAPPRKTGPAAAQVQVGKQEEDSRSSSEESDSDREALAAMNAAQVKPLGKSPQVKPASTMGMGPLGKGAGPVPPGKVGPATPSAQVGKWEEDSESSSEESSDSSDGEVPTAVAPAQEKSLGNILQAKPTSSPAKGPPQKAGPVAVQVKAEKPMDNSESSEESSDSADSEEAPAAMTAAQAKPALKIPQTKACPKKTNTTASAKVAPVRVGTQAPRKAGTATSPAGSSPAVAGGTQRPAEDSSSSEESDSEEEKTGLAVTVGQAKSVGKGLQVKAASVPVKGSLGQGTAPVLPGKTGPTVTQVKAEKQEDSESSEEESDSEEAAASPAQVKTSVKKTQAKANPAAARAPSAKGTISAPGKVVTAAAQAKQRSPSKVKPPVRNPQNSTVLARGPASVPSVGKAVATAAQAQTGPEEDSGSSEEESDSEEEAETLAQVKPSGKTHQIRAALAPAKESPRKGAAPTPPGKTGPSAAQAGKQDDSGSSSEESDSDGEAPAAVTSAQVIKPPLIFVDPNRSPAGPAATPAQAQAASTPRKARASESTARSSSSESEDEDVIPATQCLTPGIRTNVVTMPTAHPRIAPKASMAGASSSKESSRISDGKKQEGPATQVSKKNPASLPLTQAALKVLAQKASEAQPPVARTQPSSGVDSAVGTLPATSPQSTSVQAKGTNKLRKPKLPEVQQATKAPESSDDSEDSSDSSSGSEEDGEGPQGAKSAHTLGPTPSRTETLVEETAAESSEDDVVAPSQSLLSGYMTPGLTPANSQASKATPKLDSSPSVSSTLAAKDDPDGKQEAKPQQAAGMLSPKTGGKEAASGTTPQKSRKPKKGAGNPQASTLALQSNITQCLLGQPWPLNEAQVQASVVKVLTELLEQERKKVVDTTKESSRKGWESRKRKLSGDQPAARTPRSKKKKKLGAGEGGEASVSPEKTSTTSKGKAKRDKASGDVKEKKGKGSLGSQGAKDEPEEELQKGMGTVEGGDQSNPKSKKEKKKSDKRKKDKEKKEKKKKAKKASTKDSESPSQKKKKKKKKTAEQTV
Chain of HEK293 cell lysate proteins and CHIKV nsP2 (Homo sapiens, UniProt P14923) (P14923 whole entry): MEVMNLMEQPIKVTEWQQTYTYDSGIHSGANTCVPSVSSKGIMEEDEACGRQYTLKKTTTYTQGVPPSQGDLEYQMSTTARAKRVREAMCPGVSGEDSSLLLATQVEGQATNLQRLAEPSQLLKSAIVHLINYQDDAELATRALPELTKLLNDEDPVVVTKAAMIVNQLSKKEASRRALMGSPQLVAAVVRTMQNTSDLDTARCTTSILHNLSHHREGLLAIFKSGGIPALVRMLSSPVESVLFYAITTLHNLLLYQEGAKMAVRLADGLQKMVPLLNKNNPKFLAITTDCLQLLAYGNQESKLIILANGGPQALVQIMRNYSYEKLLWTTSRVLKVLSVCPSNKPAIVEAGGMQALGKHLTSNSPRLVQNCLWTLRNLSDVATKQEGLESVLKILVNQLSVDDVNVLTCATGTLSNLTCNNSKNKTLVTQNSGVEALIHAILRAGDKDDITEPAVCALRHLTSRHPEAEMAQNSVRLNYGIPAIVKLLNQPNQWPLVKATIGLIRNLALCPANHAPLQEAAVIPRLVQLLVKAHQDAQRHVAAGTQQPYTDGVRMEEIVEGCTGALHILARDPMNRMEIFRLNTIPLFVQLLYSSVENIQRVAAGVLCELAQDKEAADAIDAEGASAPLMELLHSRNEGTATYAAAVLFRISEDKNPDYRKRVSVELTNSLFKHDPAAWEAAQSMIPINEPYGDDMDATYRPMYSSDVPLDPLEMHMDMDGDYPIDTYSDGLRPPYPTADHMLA
Chain of HEK293 cell lysate proteins and CHIKV nsP2 (Homo sapiens, UniProt Q7L014) (Q7L014 whole entry): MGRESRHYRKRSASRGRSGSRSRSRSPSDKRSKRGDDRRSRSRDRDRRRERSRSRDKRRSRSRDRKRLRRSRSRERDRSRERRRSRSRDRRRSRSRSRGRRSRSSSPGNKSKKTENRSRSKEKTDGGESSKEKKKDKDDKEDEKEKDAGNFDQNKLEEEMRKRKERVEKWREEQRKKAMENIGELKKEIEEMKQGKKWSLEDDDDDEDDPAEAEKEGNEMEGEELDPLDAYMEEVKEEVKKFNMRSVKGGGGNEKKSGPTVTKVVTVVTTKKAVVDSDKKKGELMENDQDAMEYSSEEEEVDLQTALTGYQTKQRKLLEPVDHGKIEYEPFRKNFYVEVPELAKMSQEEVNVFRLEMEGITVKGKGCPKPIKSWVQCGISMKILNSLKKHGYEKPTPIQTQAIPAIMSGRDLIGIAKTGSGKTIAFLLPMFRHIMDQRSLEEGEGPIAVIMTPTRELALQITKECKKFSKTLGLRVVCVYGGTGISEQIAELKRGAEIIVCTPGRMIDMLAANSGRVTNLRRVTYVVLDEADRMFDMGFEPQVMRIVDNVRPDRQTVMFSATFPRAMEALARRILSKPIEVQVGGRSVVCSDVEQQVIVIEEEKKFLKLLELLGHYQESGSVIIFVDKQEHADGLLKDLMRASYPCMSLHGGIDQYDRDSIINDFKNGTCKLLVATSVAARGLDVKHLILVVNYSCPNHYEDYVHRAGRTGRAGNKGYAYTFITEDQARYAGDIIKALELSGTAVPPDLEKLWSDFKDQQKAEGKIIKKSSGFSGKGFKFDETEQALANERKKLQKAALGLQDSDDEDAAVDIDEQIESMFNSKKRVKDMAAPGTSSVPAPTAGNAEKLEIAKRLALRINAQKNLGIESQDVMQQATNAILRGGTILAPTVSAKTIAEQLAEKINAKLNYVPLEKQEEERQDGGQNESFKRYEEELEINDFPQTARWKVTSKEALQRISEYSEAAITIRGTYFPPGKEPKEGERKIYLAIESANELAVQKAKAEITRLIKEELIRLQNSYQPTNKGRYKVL
Chain of HEK293 cell lysate proteins and CHIKV nsP2 (Homo sapiens, UniProt P04406) (P04406 whole entry): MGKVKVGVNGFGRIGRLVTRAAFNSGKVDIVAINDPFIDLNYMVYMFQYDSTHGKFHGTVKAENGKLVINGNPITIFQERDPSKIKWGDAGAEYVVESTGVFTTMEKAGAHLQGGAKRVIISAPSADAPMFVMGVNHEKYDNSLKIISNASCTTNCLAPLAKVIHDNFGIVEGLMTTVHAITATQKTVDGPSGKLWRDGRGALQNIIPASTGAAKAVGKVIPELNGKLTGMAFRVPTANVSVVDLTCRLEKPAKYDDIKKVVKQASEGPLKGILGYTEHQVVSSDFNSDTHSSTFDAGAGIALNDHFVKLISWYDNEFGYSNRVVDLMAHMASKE
Chain of HEK293 cell lysate proteins and CHIKV nsP2 (Homo sapiens, UniProt Q8TEQ6) (Q8TEQ6 whole entry): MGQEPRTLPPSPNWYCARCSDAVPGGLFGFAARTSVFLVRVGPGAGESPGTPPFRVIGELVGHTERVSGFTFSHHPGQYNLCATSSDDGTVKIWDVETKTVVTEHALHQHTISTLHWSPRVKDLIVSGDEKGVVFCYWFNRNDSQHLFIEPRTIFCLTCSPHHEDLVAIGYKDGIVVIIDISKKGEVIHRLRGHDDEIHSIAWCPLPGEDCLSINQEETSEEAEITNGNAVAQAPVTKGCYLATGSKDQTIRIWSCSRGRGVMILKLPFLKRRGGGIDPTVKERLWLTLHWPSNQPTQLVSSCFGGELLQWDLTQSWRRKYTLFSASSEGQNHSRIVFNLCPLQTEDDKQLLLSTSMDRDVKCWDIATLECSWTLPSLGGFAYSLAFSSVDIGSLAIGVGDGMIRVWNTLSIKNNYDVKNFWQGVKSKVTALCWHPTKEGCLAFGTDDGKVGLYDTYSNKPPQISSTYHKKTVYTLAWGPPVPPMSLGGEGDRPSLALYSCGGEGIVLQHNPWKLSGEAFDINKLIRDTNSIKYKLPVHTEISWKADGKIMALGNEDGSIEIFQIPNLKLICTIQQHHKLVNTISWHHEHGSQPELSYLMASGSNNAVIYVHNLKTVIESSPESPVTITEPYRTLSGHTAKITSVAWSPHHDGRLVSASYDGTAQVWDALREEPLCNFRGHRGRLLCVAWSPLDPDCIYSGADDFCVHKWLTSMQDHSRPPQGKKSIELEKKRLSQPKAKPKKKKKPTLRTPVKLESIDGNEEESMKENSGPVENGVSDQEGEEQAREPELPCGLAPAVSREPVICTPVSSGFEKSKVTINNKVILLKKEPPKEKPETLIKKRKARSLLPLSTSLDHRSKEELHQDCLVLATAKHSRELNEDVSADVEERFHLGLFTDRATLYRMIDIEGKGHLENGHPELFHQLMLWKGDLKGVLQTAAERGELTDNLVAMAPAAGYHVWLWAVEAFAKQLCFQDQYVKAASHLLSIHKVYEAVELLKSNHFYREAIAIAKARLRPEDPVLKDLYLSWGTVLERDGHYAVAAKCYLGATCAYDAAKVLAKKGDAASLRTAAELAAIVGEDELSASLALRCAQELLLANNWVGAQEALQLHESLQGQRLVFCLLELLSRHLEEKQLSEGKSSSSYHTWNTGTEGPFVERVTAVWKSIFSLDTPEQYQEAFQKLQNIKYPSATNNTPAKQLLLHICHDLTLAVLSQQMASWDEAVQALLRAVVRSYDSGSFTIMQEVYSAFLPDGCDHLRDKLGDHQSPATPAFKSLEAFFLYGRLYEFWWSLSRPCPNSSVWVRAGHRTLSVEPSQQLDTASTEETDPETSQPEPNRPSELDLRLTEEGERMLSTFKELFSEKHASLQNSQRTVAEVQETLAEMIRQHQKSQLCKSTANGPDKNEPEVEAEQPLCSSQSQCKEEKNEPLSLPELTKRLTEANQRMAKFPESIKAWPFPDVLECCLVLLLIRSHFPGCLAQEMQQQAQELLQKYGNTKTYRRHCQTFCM

SMILES: C#CCOc1ccccc1-c1cc(C(=O)NC/C=C/S(C)(=O)=O)on1 [VS, (E)-N-(3-(methylsulfonyl)allyl)−3-(2-(prop-2-yn-1-yloxy)phenyl)isoxazole-5-carboxamide]
- Log2 fold change [1]: 1.10
- Log2 fold change [2]: -0.93
- Log2 fold change [3]: 0.06
- Log2 fold change [4]: -1.93
- Log2 fold change [5]: 0.96
- Log2 fold change [6]: 2.14
- Log2 fold change [7]: 1.78
- Log2 fold change [8]: 6.55
- Log2 fold change [9]: 1.63
- Log2 fold change [10]: 1.67
- Log2 fold change [11]: 1.52
- Log2 fold change [12]: 1.15
- Log2 fold change [13]: -1.34
- Log2 fold change [14]: 1.97
- Log2 fold change [15]: 3.37
- Log2 fold change [16]: -1.22
- Log2 fold change [17]: -2.83
- Log2 fold change [18]: 1.36
- Log2 fold change [19]: 1.61
- Log2 fold change [20]: 1.02 and 1.32
- Log2 fold change [21]: 1.46
- Log2 fold change [22]: -0.0263
- Log2 fold change [23]: -0.13
- Log2 fold change [24]: -0.12
- Log2 fold change [25]: -0.32
- Log2 fold change [26]: 0.0737
- Log2 fold change [27]: -1.35
- Log2 fold change [28]: -0.75
- Log2 fold change [29]: 0.25
